Reference: ChEMBL document CHEMBL1148994, “On the active principles of the spurge family, X. Skin irritants, cocarcinogens, and cryptic cocarcinogens from the latex of the manchineel tree” (J Nat Prod, 1984)

Columns and labels:
[1] = Toxicity in NMRI mouse assessed as survival rate at 3.1 ug for 48 weeks measured after 24 weeks; format: organism-based; conditions: in vivo, read-out: Activity
[2] = Toxicity in NMRI mouse back skin assessed as survival rate at 11.7 ug for 48 weeks measured after 24 weeks; format: organism-based, Zone of skin; conditions: in vivo, topical or ocular, read-out: Activity
[3] = species: Mus musculus; test: Carcinogenic activity in NMRI mouse assessed as number of tumors per mouse at 12.2 ug for 34 weeks measured after 12 weeks; format: ADME, organism-based; conditions: in vivo, 2016 h
[4] = species: Mus musculus; test: Toxicity in NMRI mouse assessed as drug level required for irritant activity in 50% animal assessed per ear; format: organism-based; conditions: in vivo
[5] = Toxicity in NMRI mouse assessed as survival rate at 12.2 ug for 34 weeks measured after 24 weeks; format: organism-based; conditions: in vivo, read-out: Activity
[6] = species: Mus musculus; test: Carcinogenic activity in NMRI mouse assessed as number of tumor bearing mouse at 12.2 ug for 34 weeks measured after 12 weeks; format: ADME, organism-based; conditions: in vivo, 2016 h

**Q.** What does the source list for `C=C(C)[C@]12C[C@@H](C)[C@@]34O[C@](/C=C/C=C/CCCCCCCCC)(O[C@@H]1[C@@H]3[C@@H]1O[C@]1(CO)[C@@H](O)[C@]1(O)C(=O)C(C)=C[C@H]14)O2`?
**A.** survival at 4032 h [1]: 96%; survival at 4032 h [2]: 96%

**Q.** Which Activity [3] does the source give for `CCCCCCCCC/C=C/C=C/C=C/C(=O)O[C@@]12C[C@@H](C)[C@@]3(O)[C@H]([C@@H]1C2(C)C)[C@@H]1O[C@]1(CO)[C@@H](O)[C@]1(O)C(=O)C(C)=C[C@H]13` [MANCINELLIN] here?
**A.** Not Active

**Q.** And the Activity [4]?
**A.** 0.15 µg

**Q.** And the survival at 4032 h [5]?
**A.** 100%

**Q.** And the Activity [6]?
**A.** Not Active

**Q.** Which survival at 4032 h [1] does the source give for `CCCCCCCCCCCCCC(=O)O[C@@H]1[C@@H](C)[C@@]2(O)[C@@H](C=C(CO)C[C@]3(O)C(=O)C(C)=C[C@@H]23)[C@@H]2C(C)(C)[C@]12OC(C)=O` [TETRADECANOYL PHORBOL ACETATE] here?
**A.** 96%

**Q.** And the Activity [4]?
**A.** 0.01 µg
